Results as given in patent US8309611B2, “Methods and compositions for treating lung cancer” (Golden Biotechnology Corporation, priority 2011, dated 2012).
pIC50: −log10 of the molar value. In brackets after ≈: the same amount, converted by molar mass. Where two headings read alike, the source gives them in different places.

Experiments:
A549 = assay: MTT cell survival assay, A549; type: cell-based; conditions: Homo sapiens; for IC50: 48 hours, read-out: IC50 (μg/ml), in vitro cell survival rate test, A549
Procedure: (§1) The NCI anti-cancer drug screen model was adopted to test anti-cancer effect of the exemplary compounds from Example 1. The isolated compound 1 from Example 1 was added into the culture media of human lung-cancer cells, A549, NCI-H460, CL1-0, CL1-5 or DMS 114, to test for tumor cell survival (either by MTT assay or colony formation assay). Compounds 4, 5, 6, and 7 were used in MTT assay against A549.
(§2) A549, CL1-0, and CL1-5 cells are human lung adenocarcinoma cell lines. CL1-0 cells are minimally invasive sub-lines with low migration. CL1-5 cell line, on the other hand, is highly invasive with high migration ability. The NCI-H460 cell line is derived from human large cell lung cancer, which is one of the major types of non-small cell lung carcinoma. DMS 114 is small cell lung cancer cell line, and was obtained from the American Type Culture Collection (Manassas, Va.).
MTT assay is commonly used to determine cell proliferation, percent of viable cells, and cytotoxicity. MTT (3-[4,5-dimethylthiazol-2-yl]2,5-diphenyltetrazolium bromide) is a yellow dye, which can be absorbed by the living cells and be reduced to purplish blue formazan crystals by succinate tetrazolium reductase in mitochondria. Formazan formation can therefore be used to assess and determine the survival rate of cells.
A549, NCI-H460, CL1-0, CL1-5 and DMS 114 cells were suspended and cultured in 10% fetal bovine serum (Life Technologies Inc.) containing RPM1-1640 culture medium that also includes 1% penicillin and 1% streptomycin. Human bronchial epithelium cell line, BEAS-2B was used as a control. The BEAS-2B cell line was cultured in LHC-9 serum-free medium. All these cell lines were incubated under 5% CO2, 37° C. for 24 hours. After cell proliferation, the cells were washed once with PBS, treated with the trypsin-EDTA, and then centrifuged at 1,200 rpm for 5 minutes to separate cells from supernatant. The cells were re-suspended in fresh culture medium (10 mL) and placed in 96 well plates.
To each of the 96 well plates containing A549, NCI-H460, CL1-0, CL1-5, DMS 114 or BEAS-2B, 0.03, 0.1, 0.3, 1 and 3 μg/ml of compound 1 were add. The 96 well plates were incubated at 37° C., 5% CO2 for 48 hours. Subsequently, in the dark environment to each well of the plates were added 2.5 mg/ml of MTT. The reaction was terminated by addition of 100 ul of lysis buffer after 4 hours. The survival rate of cells was calculated based on the measurement of absorption at the 570 nm wavelength by enzyme immunoassay analyzer.

NCI-H460 = assay: MTT cell survival assay, NCI-H460; type: cell-based; conditions: Homo sapiens, 48 hours, read-out: IC50 (μg/ml), in vitro cell survival rate test, NCI-H460
Procedure: as §1, §2
(§3) MTT assay is commonly used to determine cell proliferation, percent of viable cells, and cytotoxicity. […]
(§4) To each of the 96 well plates containing A549, NCI-H460, CL1-0, CL1-5, DMS 114 or BEAS-2B, 0.03, 0.1, 0.3, 1 and 3 μg/ml of compound 1 were add. […] The survival rate of cells was calculated based on the measurement of absorption at the 570 nm wavelength by enzyme immunoassay analyzer.

DMS 114 = assay: MTT cell survival assay, DMS 114; type: cell-based; conditions: Homo sapiens, 48 hours, read-out: IC50 against DMS 114
Procedure: as §1, §2, §3, §4

[1] = Drug distribution in organs analysis (LC/MS/MS); type: in vivo, CD-1 male mice; conditions: CD-1 mice, iv 2 mg/Kg, 0.25-4 hours, plasma, kidney, small and large intestine
Procedure: Experiments described herein were performed on CD-1 male mice (average weight 24±2 grams, provided by BioLasco, Taiwan). The mice were injected intravenously with a solution of compound 1 in 5% ethanol and 30% PEG400 (2 mg/Kg body weight). After 0.25, 0.5, 1, 2, 4 hours of the iv injection, 0.5 ml of blood was collected via cardiac puncture. The bloods were placed in a centrifuge tube containing K-EDTA and centrifuged for 15 min at 4° C. under 1500 g to produce supernatants (plasma sample). At the same time points, lung, kidney, small intestine and large intestine of the mice were collected and preserved at −70° C. for similar analysis.
The concentration of compound 1 in various organ samples (i.e., plasma, large intestine, left kidney, lung, right kidney and small intestine) were analyzed by LC/MS/MS spectrometer (Waters Alliance 2790 LC and Micromass Quattro Ultima). For example, plasma sample was mixed with acetonitrile and then centrifuged to prepare supernatant that was analyzed by LC/MS/MS. The pharmacokinetic parameters were obtained by WinNonlin™ software by non-compartment method.

SMILES	IC50 (A549) [µg/mL]	IC50 (NCI-H460) [µg/mL]	pIC50 (DMS 114)	Concentration in lung versus other organs (FIG. 10) [1]	pIC50 (A549; read-out: IC50 on A549 (text))
COC1=C(OC)C(O)C(C/C=C(\C)CC/C=C(\C)CCC=C(C)C)C(C)C1=O (stereo not drawn) [Compound 1, 4-hydroxy-2,3-dimethoxy-6-methyl-5-(3,7,11-trimethyldodeca-2,6,10-trienyl)cyclohex-2-enone]	0.45	0.82 (≈ 2.1 µM)	4.80	significantly higher concentration than other organs	
COC1=C(O)C(O)C(C/C=C(\C)CC/C=C(\C)CCC=C(C)C)C(C)C1=O (stereo not drawn) [Compound 4, 3,4-dihydroxy-2-methoxy-6-methyl-5-(3,7,11-trimethyldodeca-2,6,10-trienyl)cyclohex-2-enone]	3.24				
COC1=C(OC)C(O)C(C/C=C(\C)CC/C=C(\C)CCCC(C)(C)O)C(C)C1=O (stereo not drawn) [Compound 5, 4-hydroxy-5-(11-hydroxy-3,7,11-trimethyldodeca-2,6-dienyl)-2,3-dimethoxy-6-methylcyclohex-2-enone]	13.5				
COC1=C(OC)C(O)C(C/C=C(\C)CCC(=O)O)C(C)C1=O (stereo not drawn) [Compound 6]	28				4.55
COC1=C(OC)C(O)C(C/C=C(\C)CC/C=C(\C)CCCC(C)(C)OC)C(C)C1=O (stereo not drawn) [Compound 7, 4-hydroxy-2,3-dimethoxy-5-(11-methoxy-3,7,11-trimethyldodeca-2,6-dienyl)-6-methylcyclohex-2-enone]	10.5				
